In US20250034132A1, “PROLYL HYDROXYLASE DOMAIN-CONTAINING PROTEIN (PHD) INHIBITORS AND USES THEREOF” (Insilico Medicine IP Limited, priority 2021, published 2025):

Target: PHD2 (Homo sapiens, UniProt Q9GZT9)
Experiment: PHD2 enzymatic assay (AlphaScreen)
Type: biochemical
Settings: IC50 from % inhibition

Chain of PHD2 (Q9GZT9 whole entry): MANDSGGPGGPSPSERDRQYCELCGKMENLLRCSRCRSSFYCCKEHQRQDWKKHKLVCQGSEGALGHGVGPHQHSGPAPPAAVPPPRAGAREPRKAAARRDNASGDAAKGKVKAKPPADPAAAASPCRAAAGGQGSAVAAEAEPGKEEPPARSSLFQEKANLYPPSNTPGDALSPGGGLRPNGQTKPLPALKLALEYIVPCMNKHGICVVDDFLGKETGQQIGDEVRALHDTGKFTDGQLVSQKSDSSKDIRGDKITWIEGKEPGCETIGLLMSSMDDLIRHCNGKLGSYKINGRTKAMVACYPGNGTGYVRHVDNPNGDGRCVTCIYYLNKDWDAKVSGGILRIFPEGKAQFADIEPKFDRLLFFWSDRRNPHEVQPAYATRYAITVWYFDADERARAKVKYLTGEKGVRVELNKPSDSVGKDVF

N#Cc1ccc(CNC(=O)c2ncc3nc(N4CC(N)C4)ccc3c2O)cn1 [Example 132]
IC50: < 5 nM
